The values that follow come from the SangsterLogP compilation.

This data set is described as follows: method code SF, from Hansch, C. & Leo, A. (1987). Log P database [Dataset]. Pomona College Medicinal Chemistry Project.

As for `S=c1cc[nH]cc1`, the logP (usually the decadic logarithm of the partition coefficient of the neutral form, usually between octanol and water) was found to be 0.2.

As for `CNC(=S)NCCSCc1nc[nH]c1C`, the logD (as a rule, the decadic logarithm of the distribution of all forms, ionised or not, between an organic phase and buffer at a given pH) (pH 10.8) amounted to 0.59.

The molecule `COc1cc2c(c(OC)c1OC)-c1ccc(O)c(=O)cc1[C@@H](N)CC2` displayed a logP of 0.26.

For `CN(C)/N=N/c1ccccc1`, the logD (pH 7.4) was 2.59.

The molecule `O=C1OC(Cc2ccccc2)c2ccccc21` (stereo not given) had a logP of 3.12.

`Nc1cccc([N+](=O)[O-])c1N` came in with a logP of 1.27.

Take `C[C@@H](O)c1ccccc1`: the logP was determined as 1.42.

The molecule `c1ccc(-c2ccc3ccccc3n2)cc1` had a log partition coefficient (logP) of 3.9.

In turn, `O=[N+]([O-])c1ccc(N2CCCCC2)cc1` came in with a logP of 3.26.

Take `FC(F)Oc1ccccc1`: the logP was found to be 2.41.

`O=c1[nH]nnc2ccccc12` showed a logP of 0.83.

As to `O=S(=O)(NO)c1ccccc1`, the logP came to 0.48.

On to `CCCCNCc1cccnc1`, for which the logD (pH 11.0) stood at 1.34.

The molecule `CN1C(=O)c2ccccc2C1=O` gave a logP of 1.31.

In turn, `COc1cccc(OC)c1` came in with a logP of 2.21.

Molecule `CC(=O)c1ccco1` returned a logP of 0.52.

On to `C=C1C[C@]23C[C@@]1(O)CC[C@H]2[C@@]12C=C[C@H](O)[C@@](C)(C(=O)O1)[C@H]2[C@@H]3C(=O)O`, for which the logP worked out at 0.24.

In the case of `CCOC(=O)Cn1ccnc1C=Cc1ccc([N+](=O)[O-])o1`, the logP came to 1.27.

Turning to `O=S1(=O)N=C(C2CC=CCC2)Nc2ccccc21` (stereo not given), the logP worked out at 2.05.

`Cn1ccc(=O)[nH]c1=O` came in with a logP of -1.2.

In turn, `CN1CCOCC1` came in with a logP of -0.33.

`CNc1nc2ccccc2o1` displayed a logP of 1.82.

For `CCOC(=O)C(=Cc1ccccc1)C(C)=O`, the logP turned out to be 2.21.

`O=C(O)c1cc(=O)c2c(OCC(O)COc3cccc4oc(C(=O)O)cc(=O)c34)cccc2o1` returned a logP of 1.92.

Molecule `N#CN/C(N)=N/c1ccccc1` had a logP of 1.05.

For `O=C(Nc1ccc(Br)cc1)C(F)(F)F`, the logP is 3.34.

Take `CCCCC`: the logP was 3.23.

With `CC(C)CN(CC(C)C)C(=O)C=Cc1ccc2c(c1)OCO2`, the logP worked out at 4.37.

For the molecule `CCCC1CNC(C(=O)NC(C(C)Br)C2OC(SC)C(O)C(O)C2O)C1` (stereo not given), the logD (pH 12.3) worked out at 1.77.

Turning to `CN(C)c1ccc(C(N)=O)cc1`, the logP stood at 1.14.

`COc1ccc(OC(C)=O)cc1` yielded a logP of 1.54.

Molecule `CCC=O` registered a logP of 0.59.

The molecule `CC(=O)OCC1CCC(NC(=O)N(CCCl)N=O)CC1` (stereo not given) came in with a logP of 2.24.

As to `CC(C)Oc1cn[nH]c1`, the logP came out at 1.13.

`c1ccc2c(c1)OCO2` returned a logP of 2.08.

As to `O=C(O)COc1ccccc1-c1ccccc1`, the logP was 2.83.

The molecule `O=[N+]([O-])c1ccc(C=Cc2ncccn2)o1` registered a logP of 1.34.

On to `COc1ccc(-c2nc3cnccc3[nH]2)c(OCCCCl)c1`, for which the logP turned out to be 3.53.

Where the note is “pH 12.0”, `CCCC1CC(C(=O)NC(C(C)Cl)C2OC(SC)C(O)C(O)C2O)N(CC)C1` (stereo not given) returned a logD of 2.51.

Consider `NCc1ccc([N+](=O)[O-])cc1`, for which, under “pH 13.0”, the logD amounted to 1.06.

In turn, `NC(=O)Nc1cnc2ccccc2n1` showed a logP of 1.3.

Molecule `COC(=O)Cc1cccs1` yielded a logP of 1.51.

For the molecule `CCOC(=O)C(=O)c1cccs1`, the logP came out at 1.77.

Molecule `C=CCN(CC=C)c1c(C)n(-c2ccccc2)c(=O)n(C)c1=O` showed a logD (pH 7.4) of 2.59.

Take `CC[C@H]1OC(=O)[C@H](C)[C@@H](OC2CC(C)(OC)C(O)C(C)O2)C(C)[C@@H](OC2OC(C)CC(N(C)C)C2O)[C@](C)(O)C[C@@H](C)C(=O)[C@H](C)[C@@H](O)[C@H]1C` (stereo not given in full): the logP turned out to be 3.12.

Turning to `Oc1ccccc1C(F)(F)F`, the logP worked out at 2.73.

Regarding `CCCCSc1ccccc1OC(=O)NC`, the logP came out at 2.98.

The molecule `CO[C@H]1/C=C\O[C@@]2(C)Oc3c(C)c(O)c4c(O)c(c(/C=N/OCCCc5ccccc5)c(O)c4c3C2=O)NC(=O)/C(C)=C\C=C/[C@H](C)[C@H](O)[C@@H](C)[C@@H](O)[C@@H](C)[C@H](OC(C)=O)[C@@H]1C` returned a logP of 4.83.

For `Cc1ccc2ncccc2c1`, the logP worked out at 2.57.

Molecule `BrCCBr` came in with a logP of 1.96.
